Results from patent publication US20100028889A1, “COMPANION DIAGNOSTIC ASSAYS FOR CANCER THERAPY” (ABBOTT LABORATORIES, priority 2006, published 2010).
Read-outs that look alike come from different tables or passages of the source.

Legend:
Format in all cases: cell-based, human
JVM-13 = assay: cell cytotoxicity EC50, CellTiter Glo, Mantle Cell Lymphoma cell line
Experimental: (§1) The SCLC and leukemia/lymphoma cell lines listed below were obtained from the American Type Culture Collection (Manassas, Va.), Deutsche Sammlung von Mikroorganismen und Zellkulturen (DSMZ, Braunsweig, Germany), or were the generous gift from Dr. Louis Staudt (National Cancer Institute) and were cultured as described in Tse, C., Shoemaker, A. R., Adickes, J., et al., “ABT-263: a potent and orally bioavailable Bcl-2 family inhibitor,” Cancer Res 2008; 68: 3421-3428; and Tahir, S. K., Yang, X., Anderson, M. G., et al., “Influence of Bcl-2 family members on the cellular response of small-cell lung cancer cell lines to ABT-737,” Cancer Res 2007; 67: 1176-1183.
(§2) Cells were treated at 10,000 or 50,000 cells per well for adherent or suspension cells, respectively, in 96-well microtiter plates in the presence of 10% human serum for 48 hours with or without ABT-263, in a humidified chamber with 5% CO2. ABT-263 was synthesized as previously described in Tse, C., Shoemaker, A. R., Adickes, J., et al., “ABT-263: a potent and orally bioavailable Bcl-2 family inhibitor,” Cancer Res 2008; 68: 3421-3428; and Oltersdorf, T., Elmore, S. W., Shoemaker, A. R., et al., “An inhibitor of Bcl-2 family proteins induces regression of solid tumours,” Nature 2005; 435: 677-681, and cell cytotoxicity EC50 values were assessed using CellTiter Glo (Promega, Madison Wis.).

JeKo-1 = assay: as above
Experimental: as §1, §2

JVM-2 = assay: as above
Experimental: as §1, §2

Mino = assay: as above
Experimental: as §1, §2

Granta = assay: as above
Experimental: as §1, §2

HBL-2 = assay: as above
Experimental: as §1, §2

SP53 = assay: as above
Experimental: as §1, §2

NCI-1417 = assay: cell cytotoxicity EC50, CellTiter Glo, SCLC cell line
Experimental: as §1, §2

NCI-H146 = assay: as above
Experimental: as §1, §2

NCI-H1836 = assay: as above
Experimental: as §1, §2

DMS 53 = assay: as above
Experimental: as §1, §2

SHP-77 = assay: as above
Experimental: as §1, §2

H69AR = assay: as above
Experimental: as §1, §2

NCI-H1930 = assay: as above
Experimental: as §1, §2

NCI-H209 = assay: as above
Experimental: as §1, §2

NCI-H187 = assay: as above
Experimental: as §1, §2

[1] = 10% human serum, 48 hours, read-out: EC50
[2] = Homo sapiens, read-out: Response Designation

Question: Which EC50 (JVM-13; Homo sapiens, JVM13, read-out: Response Designation) does the source give for `CC1(C)CCC(c2ccc(Cl)cc2)=C(CN2CCN(c3ccc(C(=O)NS(=O)(=O)c4ccc(N[C@H](CCN5CCOCC5)CSc5ccccc5)c(S(=O)(=O)C(F)(F)F)c4)cc3)CC2)C1` [ABT-263, N-(4-(4-((2-(4-chlorophenyl)-5,5-dimethyl-1-cyclohex-1-en-1-yl)methyl)piperazin-1-yl)benzoyl)-4-(((1R)-3-(morpholin-4-yl)-1-((phenylsulfanyl)methyl)propyl)amino)-3-((trifluoromethyl)sulfonyl)benzenesulfonamide] here?
Answer: > 4.8 µM

Question: And the EC50 (JVM-13; JVM13, 10% human serum, 48 hours, read-out: EC50)?
Answer: 13 µM

Question: What about the EC50 (JeKo-1; [1]) of the same compound?
Answer: 1.74 µM

Question: And the EC50 (JeKo-1; [2])?
Answer: ≤ 4.8 µM

Question: What about the EC50 (JVM-2; [1]) of the same compound?
Answer: 4.11 µM

Question: What about the EC50 (JVM-2; [2]) of the same compound?
Answer: ≤ 4.8 µM

Question: And the EC50 (Mino; Homo sapiens, MINO, read-out: Response Designation)?
Answer: ≤ 4.8 µM

Question: What about the EC50 (Mino; Mino, 10% human serum, 48 hours, read-out: EC50) of the same compound?
Answer: 0.033 µM

Question: And the EC50 (Granta; [1])?
Answer: 0.041 µM

Question: What about the EC50 (Granta; [2]) of the same compound?
Answer: ≤ 4.8 µM

Question: What about the EC50 (HBL-2; HBL2, 10% human serum, 48 hours, read-out: EC50) of the same compound?
Answer: 0.031 µM

Question: And the EC50 (HBL-2; Homo sapiens, HBL2, read-out: Response Designation)?
Answer: ≤ 4.8 µM

Question: What about the EC50 (SP53; [1]) of the same compound?
Answer: 0.14 µM

Question: And the EC50 (SP53; [2])?
Answer: ≤ 4.8 µM

Question: And the EC50 (NCI-1417; [1])?
Answer: 0.36 µM

Question: And the EC50 (NCI-1417; [2])?
Answer: ≤ 4.1 µM

Question: What about the EC50 (NCI-H146; [1]) of the same compound?
Answer: 0.11 µM

Question: And the EC50 (NCI-H146; [2])?
Answer: ≤ 4.1 µM

Question: What about the EC50 (NCI-H1836; [1]) of the same compound?
Answer: 0.4 µM

Question: And the EC50 (NCI-H1836; [2])?
Answer: ≤ 4.1 µM

Question: And the EC50 (DMS 53; [1])?
Answer: 1.6 µM

Question: What about the EC50 (DMS 53; [2]) of the same compound?
Answer: ≤ 4.1 µM

Question: What about the EC50 (SHP-77; Homo sapiens, SHP77, read-out: Response Designation) of the same compound?
Answer: ≤ 4.1 µM

Question: What about the EC50 (SHP-77; SHP77, 10% human serum, 48 hours, read-out: EC50) of the same compound?
Answer: 3.9 µM

Question: What about the EC50 (H69AR; [1]) of the same compound?
Answer: 22.3 µM

Question: And the EC50 (H69AR; [2])?
Answer: > 4.1 µM

Question: What about the EC50 (NCI-H1930; [1]) of the same compound?
Answer: 3 µM

Question: What about the EC50 (NCI-H1930; [2]) of the same compound?
Answer: ≤ 4.1 µM

Question: What about the EC50 (NCI-H209; [1]) of the same compound?
Answer: 1.15 µM

Question: And the EC50 (NCI-H209; [2])?
Answer: ≤ 4.1 µM

Question: And the EC50 (NCI-H187; [1])?
Answer: 0.21 µM

Question: What about the EC50 (NCI-H187; [2]) of the same compound?
Answer: ≤ 4.1 µM
